Peptide text beside a SMILES is read from it.
Target: VR1 nocireceptor
Test: Blockage of capsaicin-activated ionic current in X. laevis ovocites expressing the VR1 nocireceptor (two-microelectrode voltage clamp)
Assay type: cell-based
Conditions: VR1 expressed in X. laevis ovocites; activated by capsaicin 20 µM; transmembrane voltage -80 mV; read-out: peptide concentrations that inhibited half of the VR1 response (IC50)
Source text: This test comprises contacting X. laevi ovocites expressing the VR1 nocireceptor with an agonist (ligand) for said VR1 nocireceptor, for example, capsaicin, in the presence or absence of the compound to be tested, maintaining the transmembrane voltage constant at -80 mV, and detecting the inhibiting activity of said compound to be tested by measuring the agonist-activated ionic current in the presence and absence of the compound to be tested. The power and effectiveness of the inhibiting activity of the compound to be tested can be determined by obtaining the dosage-response curves. To achieve this, the magnitude of the capsaicin-activated ionic current blockage is examined in X. laevi ovocites that express the VR1 nocireceptor in the presence of the growing concentrations of the compound to be tested. The ratio of ionic current intensities in the presence and absence of the compound to be tested permits the obtention of dosage-response curves (19,20). These graphs can be adjusted to logarithmic functions to determine the maximum blockage (power) and the antagonist concentration produced by half the maximum blockage (IC50 effective).
In order to evaluate the biological activity of peptides obtained in Example 1.1 a test was developed to evaluate the power of said peptides blocking the agonist-activated ionic current in X. laevis ovocites that express the VR1 nocireceptor.
The heterologous expression of receptors in X. laevis ovocites can be carried out according to the procedure described by Ferrer-Montiel and Montal (19). […] The capsaicin agonist-activated ionic currents are recorded with the maintenance of the constant voltage technique with two microelectrodes (two-microelectrode voltage clamp) (19, 20). […] The inhibiting activity is detected by measuring the agonist -activated ionic current in the presence and absence of the peptides.
The power and effectiveness of the peptide inhibiting activity is determined by means of the obtention of dosage-response curves. […]

Compared with `N=C(N)NCCC[C@H](NC(=O)[C@H](CCCNC(=N)N)NC(=O)[C@H](Cc1ccc(O)cc1)NC(=O)[C@H](Cc1ccc(O)cc1)NC(=O)[C@@H](N)CCCNC(=N)N)C(=O)N[C@@H](Cc1c[nH]c2ccccc12)C(=O)O` [SEC. ID. N1: 3, Arg-Tyr-Tyr-Arg-Arg-Trp] (H-RYYRRW-OH), `N=C(N)NCCC[C@H](NC(=O)[C@H](CCCNC(=N)N)NC(=O)[C@H](CCCNC(=N)N)NC(=O)[C@@H](N)CCCNC(=N)N)C(=O)N[C@@H](Cc1c[nH]c2ccccc12)C(=O)N[C@@H](Cc1c[nH]c2ccccc12)C(=O)O` [SEC. ID. N1: 1, Arg-Arg-Arg-Arg-Trp-Trp] (H-RRRRWW-OH) is 100-fold lower in IC50: roughly 10000 nM for the first, roughly 100 nM for the second.

`CC[C@H](C)[C@H](NC(=O)[C@H](Cc1c[nH]c2ccccc12)NC(=O)[C@H](Cc1c[nH]c2ccccc12)NC(=O)[C@H](CCCNC(=N)N)NC(=O)[C@@H](N)CCCNC(=N)N)C(=O)N[C@@H](CCCNC(=N)N)C(=O)O` [SEC. ID. N1: 2, Arg-Arg-Trp-Trp-Ile-Arg] (H-RRWWIR-OH) was tested, and the IC50 was roughly 2000 nM.

— patent EP1179538A1, “PEPTIDES BLOCKING RESPONSE TO CHEMICAL SUBSTANCES OR THERMAL STIMULI OR NOCICEPTOR INFLAMMATION MEDIATORS AND COMPOSITIONS CONTAINING SAID PEPTIDES” (Universidad Miguel Hernandez de Elche, priority 1999, dated 2002)
